Measured values taken from article PMC7356589, “Hybrid Gold(I) NHC-Artemether Complexes to Target Falciparum Malaria Parasites” (Molecules, 2020).
Where two headings read alike, the source gives them in different places.

How the values were obtained:
[1] = test system: P. falciparum strain F32-TEM (F32-Tanzania); test: In vitro antiplasmodial activity (SYBR Green fluorescence and [3H] hypoxanthine assays); format: cell-based, Plasmodium falciparum
Procedure: In vitro antiplasmodial activities of the synthesized hybrid molecules were evaluated against the P. falciparum strain F32-TEM (corresponding to the parental strain F32-Tanzania). Each molecule was tested at least in three independent experiments (except Aubis(5-Bn), tested twice) by a SYBR Green Fluorescence assay but also at least once with the standard chemosensitivity assay recommended by the WHO and based on the incorporation of [^3H] hypoxanthine.
For the SYBR Green Fluorescence assay, ring stage parasites were treated with the drugs for 48 h. Then, the pellets were washed twice with PBS and frozen at −20 °C. Thawed plates were incubated for 2 h at room temperature with the SYBR Green (Thermo-Fisher, Illkirch, France) lysis buffer (20 mm Tris base pH 7.5, 5 mm EDTA, 0.008% w/v saponin, 0.08% w/v Triton X-100). The plates were then read using a fluorescence plate reader (FLx800, BioTek, Illkirch, France) at an excitation wavelength of 485 nm and 535 nm for the emission wavelength. The IC50 values (concentration inhibiting 50% of the parasite’s growth) were determined using GraphPad Prism software 7 (GraphPad Software, San Diego, CA, USA).
For [^3H] hypoxanthine assay, ring stage parasites were incubated with the drug dilutions for 24 h, then, [^3H] hypoxanthine (50 μL/0.25 μCi; Perkin-Elmer, Courtaboeuf, France) was added for another 24 h period. After that, plates were frozen at −20 °C. The next step is to thaw the plates and to collect the nucleic acids. Tritium incorporation was then determined thanks to a β-counter (Perkin-Elmer, Courtaboeuf, France).
The antiplasmodial activities reported in Table 1 correspond thus to the mean of IC50 values from at least 4 independent experiments acquired by the two methods, SYBR Green and radioactivity.

[2] = test system: Vero cell line; test: Cytotoxicity on Vero cells (MTT); format: cell-based, monkey; settings: for IC50: Vero cells, 48 h, MTT, read-out: Cytotoxicity on Vero Cells IC50 ± SEM
Procedure: The cells were cultured in MEM medium (Dutscher, Brumath, France) supplemented with 10% fetal bovine serum (Dutscher), 0.7 mM glutamine and 100 μg/mL gentamicin. The cells were seeded at 10^4 cells per well in a 96-well plates and incubated during 24 h. Then, cells were incubated for additional 48 h with the drugs. […] Subsequently, DMSO was added to the wells containing the cells and MTT to dissolve the formed crystals. The plates were then read to determine the absorbance at wavelength of 540 nm (µQuant, BioTek, Illkirch, France). Cell proliferation was calculated from at least three independent experiments using GraphPad Prism software 7 (GraphPad Software, San Diego, CA, USA). The cytotoxic/antiplasmodial activity ratio corresponds to the selectivity index.

[3] = strain F32-Tanzania (F32-TEM), mean of at least 4 experiments, SYBR Green and radioactivity assays, 48 h, read-out: Antiplasmodial Activity on P. falciparum IC50 ± SEM
[4] = Plasmodium falciparum, F32, 48 h, strain F32-Tanzania (F32-TEM), mean of at least 4 experiments, SYBR Green and radioactivity assays, read-out: Antiplasmodial Activity on P. falciparum IC50 ± SEM

Compound | IC50 [1, 3] [µM] | IC50 [2] [µM] | IC50 [1, 4] [µM] | further results
CO[C@H]1O[C@@H]2O[C@@]3(C)CC[C@H]4[C@H](C)CC[C@@H]([C@H]1C)[C@@]24OO3 [Artemether] |  |  |  | IC50 ([1]; Plasmodium falciparum, F32, 48 h, read-out: Antiplasmodial Activity on P. falciparum IC50 ± SEM, strain F32-Tanzania (F32-TEM), mean of at least 4 experiments, SYBR Green and radioactivity assays): 0.0061 ± 0.001 µM; Selectivity Index Vero Cells/P. falciparum ([2]; cytotoxic/antiplasmodial activity ratio): 35 000
C[C@@H]1CCC2[C@@H](C)[C@@H](OCCCn3cc[n+](Cc4ccccc4)[c]3[Au-][c]3n(CCCO[C@H]4O[C@@H]5O[C@@]6(C)CCC7[C@H](C)CCC([C@H]4C)[C@]75OO6)cc[n+]3Cc3ccccc3)O[C@@H]3O[C@@]4(C)CCC1[C@@]23OO4.[Cl-] (some centres unmarked) [Aubis(3-Bn)] | 0.022 ± 0.003 | 0.3 |  | 
Cc1cc(C)c(-[n+]2ccn(CCCO[C@H]3O[C@@H]4O[C@@]5(C)CCC6[C@H](C)CCC([C@H]3C)[C@]64OO5)[c]2[Au-][c]2n(CCCO[C@H]3O[C@@H]4O[C@@]5(C)CCC6[C@H](C)CCC([C@H]3C)[C@]64OO5)cc[n+]2-c2c(C)cc(C)cc2C)c(C)c1.[Cl-] (some centres unmarked) [Aubis(3-Mes)] | 0.061 ± 0.037 | 0.5 |  | 
C[C@@H]1CCC2[C@@H](C)[C@@H](OCCCn3cc[n+](-c4ccc5ccccc5n4)[c]3[Au-][c]3n(CCCO[C@H]4O[C@@H]5O[C@@]6(C)CCC7[C@H](C)CCC([C@H]4C)[C@]75OO6)cc[n+]3-c3ccc4ccccc4n3)O[C@@H]3O[C@@]4(C)CCC1[C@@]23OO4.[Cl-] (some centres unmarked) [Aubis(3-Quin)] | 0.023 ± 0.008 | 1.2 |  | 
CC(C)[n+]1ccn(CCCO[C@H]2O[C@@H]3O[C@@]4(C)CCC5[C@H](C)CCC([C@H]2C)[C@]53OO4)[c]1[Au-][c]1n(CCCO[C@H]2O[C@@H]3O[C@@]4(C)CCC5[C@H](C)CCC([C@H]2C)[C@]53OO4)cc[n+]1C(C)C.[Cl-] (some centres unmarked) [Aubis(3-iPr)] | 0.013 ± 0.005 | 0.7 |  | 
C[C@@H]1CCC2[C@@H](C)[C@@H](OCCCCn3cc[n+](Cc4ccccc4)[c]3[Au-][c]3n(CCCCO[C@H]4O[C@@H]5O[C@@]6(C)CCC7[C@H](C)CCC([C@H]4C)[C@]75OO6)cc[n+]3Cc3ccccc3)O[C@@H]3O[C@@]4(C)CCC1[C@@]23OO4.[Cl-] (some centres unmarked) [Aubis(4-Bn)] | 0.04 ± 0.021 | 0.7 |  | 
Cc1cc(C)c(-[n+]2ccn(CCCCO[C@H]3O[C@@H]4O[C@@]5(C)CCC6[C@H](C)CCC([C@H]3C)[C@]64OO5)[c]2[Au-][c]2n(CCCCO[C@H]3O[C@@H]4O[C@@]5(C)CCC6[C@H](C)CCC([C@H]3C)[C@]64OO5)cc[n+]2-c2c(C)cc(C)cc2C)c(C)c1.[Cl-] (some centres unmarked) [Aubis(4-Mes)] | 0.038 ± 0.003 | 0.7 |  | 
C[C@@H]1CCC2[C@@H](C)[C@@H](OCCCCn3cc[n+](-c4ccc5ccccc5n4)[c]3[Au-][c]3n(CCCCO[C@H]4O[C@@H]5O[C@@]6(C)CCC7[C@H](C)CCC([C@H]4C)[C@]75OO6)cc[n+]3-c3ccc4ccccc4n3)O[C@@H]3O[C@@]4(C)CCC1[C@@]23OO4.[Cl-] (some centres unmarked) [Aubis(4-Quin)] | 0.083 ± 0.031 |  |  | 
C[C@@H]1CCC2[C@@H](C)[C@@H](OCCCCCn3cc[n+](Cc4ccccc4)[c]3[Au-][c]3n(CCCCCO[C@H]4O[C@@H]5O[C@@]6(C)CCC7[C@H](C)CCC([C@H]4C)[C@]75OO6)cc[n+]3Cc3ccccc3)O[C@@H]3O[C@@]4(C)CCC1[C@@]23OO4.[Cl-] (some centres unmarked) [Aubis(5-Bn)] | 0.072 ± 0.014 | 0.6 |  | 
Cc1cc(C)c(-[n+]2ccn(CCCCCO[C@H]3O[C@@H]4O[C@@]5(C)CCC6[C@H](C)CCC([C@H]3C)[C@]64OO5)[c]2[Au-][c]2n(CCCCCO[C@H]3O[C@@H]4O[C@@]5(C)CCC6[C@H](C)CCC([C@H]3C)[C@]64OO5)cc[n+]2-c2c(C)cc(C)cc2C)c(C)c1.[Cl-] (some centres unmarked) [Aubis(5-Mes)] | 0.1 ± 0.012 |  |  | 
C[C@@H]1CCC2[C@@H](C)[C@@H](OCCCCCn3cc[n+](-c4ccc5ccccc5n4)[c]3[Au-][c]3n(CCCCCO[C@H]4O[C@@H]5O[C@@]6(C)CCC7[C@H](C)CCC([C@H]4C)[C@]75OO6)cc[n+]3-c3ccc4ccccc4n3)O[C@@H]3O[C@@]4(C)CCC1[C@@]23OO4.[Cl-] (some centres unmarked) [Aubis(5-Quin)] | 0.038 ± 0.009 | 2 |  | 
CC(=O)OC[C@H]1O[C@@H]([S-])[C@H](OC(C)=O)[C@@H](OC(C)=O)[C@@H]1OC(C)=O.CCP(CC)CC.[Au+] [Auranofin, reference compound] | 1.5 |  |  | 
C[C@@H]1CCC2[C@@H](C)[C@@H](OCCCn3cc[n+](Cc4ccccc4)c3)O[C@@H]3O[C@@]4(C)CCC1[C@@]23OO4 (stereo partly drawn) [L3-Bn, 3′-Benzyl-1′-[10β-(20-propoxy)dihydroartemisinin]1H-imidazol-3-ium bromide] |  |  | 0.351 ± 0.056 | 
C[C@@H]1CCC2[C@@H](C)[C@@H](OCCCn3cc[n+](C)c3)O[C@@H]3O[C@@]4(C)CCC1[C@@]23OO4 (stereo partly drawn) [L3-Me, 3′-methyl-1′-[10β-(20-propoxy)-dihydroartemisinin]1H-imidazol-3-ium bromide] |  |  | 0.935 ± 0.117 | 
Cc1cc(C)c(-[n+]2ccn(CCCO[C@H]3O[C@@H]4O[C@@]5(C)CCC6[C@H](C)CCC([C@H]3C)[C@]64OO5)c2)c(C)c1 (stereo partly drawn) [L3-Mes, 3′-Mesityl-1′-[10β-(20-propoxy)dihydroartemisinin]1H-imidazol-3-ium bromide] |  |  | 0.655 ± 0.053 | 
C[C@@H]1CCC2[C@@H](C)[C@@H](OCCCn3cc[n+](-c4ccc5ccccc5n4)c3)O[C@@H]3O[C@@]4(C)CCC1[C@@]23OO4 (stereo partly drawn) [L3-Quin, 3′-Quinolin-2-yl-1′-[10β-(20-propoxy)dihydroartemisinin]1H-imidazol-3-ium bromide] |  |  | 0.33 ± 0.069 | 
CC(C)[n+]1ccn(CCCO[C@H]2O[C@@H]3O[C@@]4(C)CCC5[C@H](C)CCC([C@H]2C)[C@]53OO4)c1 (stereo partly drawn) [L3-iPr, 3′-Isopropyl-1′-[10β-(20-propoxy)dihydroartemisinin]1H-imidazol-3-ium bromide] |  |  | 0.335 ± 0.028 | 
C[C@@H]1CCC2[C@@H](C)[C@@H](OCCCCn3cc[n+](Cc4ccccc4)c3)O[C@@H]3O[C@@]4(C)CCC1[C@@]23OO4 (stereo partly drawn) [L4-Bn, 3′-Benzyl-1′-[10β-(21-butoxy)dihydroartemisinin]1H-imidazol-3-ium bromide] |  |  | 0.326 ± 0.044 | 
C[C@@H]1CCC2[C@@H](C)[C@@H](OCCCCn3cc[n+](C)c3)O[C@@H]3O[C@@]4(C)CCC1[C@@]23OO4 (stereo partly drawn) [L4-Me, 3′-methyl-1′-[10β-(21-butoxy)-dihydroartemisinin]1H-imidazol-3-ium bromide] |  |  | 0.84 ± 0.064 | 
Cc1cc(C)c(-[n+]2ccn(CCCCO[C@H]3O[C@@H]4O[C@@]5(C)CCC6[C@H](C)CCC([C@H]3C)[C@]64OO5)c2)c(C)c1 (stereo partly drawn) [L4-Mes, 3′-Mesityl-1′-[10β-(21-butoxy)dihydroartemisinin]1H-imidazol-3-ium bromide] |  |  | 0.219 ± 0.018 | 
C[C@@H]1CCC2[C@@H](C)[C@@H](OCCCCn3cc[n+](-c4ccc5ccccc5n4)c3)O[C@@H]3O[C@@]4(C)CCC1[C@@]23OO4 (stereo partly drawn) [L4-Quin, 3′-Quinolin-2-yl-1′-[10β-(21-butoxy)dihydroartemisinin]1H-imidazol-3-ium bromide] |  |  | 0.33 ± 0.037 | 
C[C@@H]1CCC2[C@@H](C)[C@@H](OCCCCCn3cc[n+](C)c3)O[C@@H]3O[C@@]4(C)CCC1[C@@]23OO4 (stereo partly drawn) [L5-Me, 3′-methyl-1′-[10β-(22-pentoxy)-dihydroartemisinin]1H-imidazol-3-ium bromide] |  |  | 0.172 ± 0.022 | 
C[C@@H]1CCC2[C@@H](C)[C@@H](OCCCCCn3cc[n+](-c4ccc5ccccc5n4)c3)O[C@@H]3O[C@@]4(C)CCC1[C@@]23OO4 (stereo partly drawn) [L5-Quin, 3′-Quinolin-2-yl-1′-[10β-(22-pentoxy)dihydroartemisinin]1H-imidazol-3-ium bromide] |  |  | 0.226 ± 0.029 | 
